Test results taken from ChEMBL document CHEMBL3885861, “Open TG-GATES”.

Species on record: Rattus norvegicus
Experiment: Open TG-GATES - Regimen: Single
Format: toxicity, organism-based, Sprague-Dawley
Design: regimen Single, gender Male, age 6 weeks
Conditions: in vivo, po, 0 mg/kg, route gavage, dose level Control; for APTT / Bas / Eos / Fbg / Hb / Ht / Lym / MCH / MCHC / MCV / Mono / Neu / PT / Plat / RBC / Ret / WBC: tissue Blood; for KIDNEY_L / KIDNEY_R / KIDNEY_TOTAL: tissue Kidney; for LIVER: tissue Liver; for A/G / ALP / ALT / AST / BUN / CRE / Ca / Cl / DBIL / GLC / IP / K / LDH / Na / PL / RALB / TBIL / TC / TG / TP / gamma-GTP: tissue Plasma

CCOc1ccc(NC(=O)CC(C)O)cc1 (configuration not stated) [BUCETIN]
TERMINAL_BW (3 h): 208.8 g | APTT (3 h): 14.7 s | Bas (3 h): 0% | Eos (3 h): 1% | Fbg (3 h): 294.8 mg/dL | Hb (3 h): 12.7 g/dL | Ht (3 h): 38.3% | Lym (3 h): 78.2% | MCH (3 h): 21.4 pg | MCHC (3 h): 33.2% | MCV (3 h): 64.5 fL | Mono (3 h): 3.2% | Neu (3 h): 17.2% | PT (3 h): 13.6 s | Plat (3 h): 115.4 x10_4/uL | RBC (3 h): 594.2 x10_4/ul | Ret (3 h): 8.7% | WBC (3 h): 84.1 x10_2/uL | KIDNEY_L (3 h): 0.9 g | KIDNEY_R (3 h): 0.9 g | KIDNEY_TOTAL (3 h): 1.8 g | LIVER (3 h): 9.1 g | A/G (3 h): 0.9 | ALP (3 h): 1389.8 IU/L | ALT (3 h): 35.8 IU/L | AST (3 h): 75 IU/L | BUN (3 h): 9.8 mg/dL | CRE (3 h): 0.2 mg/dL | Ca (3 h): 10.6 mg/dL | Cl (3 h): 105.2 meq/L | DBIL (3 h): 0.02 mg/dL | GLC (3 h): 178 mg/dL | IP (3 h): 8.6 mg/dL | K (3 h): 4.3 meq/L | LDH (3 h): 77.2 IU/L | Na (3 h): 141.8 meq/L | PL (3 h): 143.4 mg/dL | RALB (3 h): 2.5 g/dL | TBIL (3 h): 0.06 mg/dL | TC (3 h): 81.6 mg/dL | TG (3 h): 50.4 mg/dL | TP (3 h): 5.4 g/dL | gamma-GTP (3 h): 2 IU/L | TERMINAL_BW (6 h): 211.1 g | APTT (6 h): 16.7 s | Bas (6 h): 0.2% | Eos (6 h): 1% | Fbg (6 h): 303.8 mg/dL | Hb (6 h): 13.3 g/dL | Ht (6 h): 40% | Lym (6 h): 83.6% | MCH (6 h): 21.4 pg | MCHC (6 h): 33.3% | MCV (6 h): 64.4 fL | Mono (6 h): 1.8% | Neu (6 h): 13% | PT (6 h): 13.4 s | Plat (6 h): 117.3 x10_4/uL | RBC (6 h): 619.6 x10_4/ul | Ret (6 h): 8.6% | WBC (6 h): 97.2 x10_2/uL | KIDNEY_L (6 h): 0.9 g | KIDNEY_R (6 h): 0.9 g | KIDNEY_TOTAL (6 h): 1.9 g | LIVER (6 h): 8.9 g | A/G (6 h): 0.9 | ALP (6 h): 1305.2 IU/L | ALT (6 h): 32.4 IU/L | AST (6 h): 66.4 IU/L | BUN (6 h): 8.8 mg/dL | CRE (6 h): 0.2 mg/dL | Ca (6 h): 10.8 mg/dL | Cl (6 h): 105.6 meq/L | DBIL (6 h): 0.016 mg/dL | GLC (6 h): 178.2 mg/dL | IP (6 h): 9.2 mg/dL | K (6 h): 4.3 meq/L | LDH (6 h): 70.4 IU/L | Na (6 h): 142.8 meq/L | PL (6 h): 143.2 mg/dL | RALB (6 h): 2.5 g/dL | TBIL (6 h): 0.058 mg/dL | TC (6 h): 77.6 mg/dL | TG (6 h): 62.8 mg/dL | TP (6 h): 5.4 g/dL | gamma-GTP (6 h): 1.4 IU/L | TERMINAL_BW (9 h): 208.6 g | APTT (9 h): 17.3 s | Bas (9 h): 0% | Eos (9 h): 1% | Fbg (9 h): 299.8 mg/dL | Hb (9 h): 13 g/dL | Ht (9 h): 39.1% | Lym (9 h): 79.8% | MCH (9 h): 21.3 pg | MCHC (9 h): 33.2% | MCV (9 h): 64.3 fL | Mono (9 h): 2.6% | Neu (9 h): 16.6% | PT (9 h): 14.3 s | Plat (9 h): 114.6 x10_4/uL | RBC (9 h): 608.6 x10_4/ul | Ret (9 h): 8.1% | WBC (9 h): 87.3 x10_2/uL | KIDNEY_L (9 h): 0.9 g | KIDNEY_R (9 h): 0.9 g | KIDNEY_TOTAL (9 h): 1.8 g | LIVER (9 h): 8.3 g | A/G (9 h): 0.9 | ALP (9 h): 1557.4 IU/L | ALT (9 h): 32.8 IU/L | AST (9 h): 68.6 IU/L | BUN (9 h): 9.4 mg/dL | CRE (9 h): 0.2 mg/dL | Ca (9 h): 10.5 mg/dL | Cl (9 h): 106 meq/L | DBIL (9 h): 0.018 mg/dL | GLC (9 h): 178.6 mg/dL | IP (9 h): 9.8 mg/dL | K (9 h): 4 meq/L | LDH (9 h): 70.2 IU/L | Na (9 h): 142.2 meq/L | PL (9 h): 135 mg/dL | RALB (9 h): 2.6 g/dL | TBIL (9 h): 0.06 mg/dL | TC (9 h): 73.8 mg/dL | TG (9 h): 57.2 mg/dL | TP (9 h): 5.4 g/dL | gamma-GTP (9 h): 1.4 IU/L | TERMINAL_BW (24 h): 224 g | APTT (24 h): 18.6 s | Bas (24 h): 0.2% | Eos (24 h): 0.8% | Fbg (24 h): 290.6 mg/dL | Hb (24 h): 13.4 g/dL | Ht (24 h): 40.5% | Lym (24 h): 79% | MCH (24 h): 21.3 pg | MCHC (24 h): 33% | MCV (24 h): 64.4 fL | Mono (24 h): 2.6% | Neu (24 h): 16.6% | PT (24 h): 14.3 s | Plat (24 h): 121.1 x10_4/uL | RBC (24 h): 628.8 x10_4/ul | Ret (24 h): 7.6% | WBC (24 h): 102.9 x10_2/uL | KIDNEY_L (24 h): 1 g | KIDNEY_R (24 h): 1 g | KIDNEY_TOTAL (24 h): 2 g | LIVER (24 h): 10.4 g | A/G (24 h): 0.9 | ALP (24 h): 1587.4 IU/L | ALT (24 h): 40.4 IU/L | AST (24 h): 72.2 IU/L | BUN (24 h): 14.6 mg/dL | CRE (24 h): 0.2 mg/dL | Ca (24 h): 11.1 mg/dL | Cl (24 h): 105.2 meq/L | DBIL (24 h): 0.022 mg/dL | GLC (24 h): 180.8 mg/dL | IP (24 h): 7.9 mg/dL | K (24 h): 4.1 meq/L | LDH (24 h): 74.6 IU/L | Na (24 h): 143.6 meq/L | PL (24 h): 148.2 mg/dL | RALB (24 h): 2.6 g/dL | TBIL (24 h): 0.05 mg/dL | TC (24 h): 76.2 mg/dL | TG (24 h): 104.2 mg/dL | TP (24 h): 5.6 g/dL | gamma-GTP (24 h): 1.2 IU/L
